In patent US20060041123A1, “Antibacterial agents” (priority 2002, published 2006):

assay: Antimicrobial activity assay: whole-cell MIC by broth microdilution (NCCLS M7-A6); type: cell-based; conditions: versus all the organisms named above (S. aureus WCUH29, S. pneumoniae 1629, S. pyogenes CN 10, E. faecalis 2, H. influenzae NEMC1, E. coli 7623, M. catarrhalis Ravasio); read-out: MIC
Experimental: Whole-cell antimicrobial activity was determined by broth microdilution using the National Committee for Clinical Laboratory Standards (NCCLS) recommended procedure, Document M7-A6, “Methods for Dilution Susceptibility Tests for Bacteria that Grow Aerobically”. The compounds were tested in serial two-fold dilutions ranging from 0.016 to 16 mcg/mL. Compounds were evaluated against a panel of Gram-positive organisms, including Staphylococcus aureus WCUH29, Streptococcus pneumoniae 1629, Streptococcus pyogenes CN 10, and Enterococcus faecalis 2. In addition, compounds were evaluated against a panel of Gram-negative strains including Haemophilus influenzae NEMC1, E. coli 7623, and Moraxella catarrhalis Ravasio. The minimum inhibitory concentration (MIC) was determined as the lowest concentration of compound that inhibited visible growth. A mirror reader was used to assist in determining the MIC endpoint.
Compounds of the present invention have MIC's ≦20 μg/ml versus all the organisms named above.

Row | SMILES | MIC [µg/mL]
1 | COc1ccc2ncc(Cl)c(CCN3CCC(NCc4cc5c(cn4)OCCO5)CC3)c2n1.Cl.Cl [Example 3, {1-[2-(3-Chloro-6-methoxy-[1,5]naphthyridin-4-yl)-ethyl]-piperidin-4-yl}-(2,3-dihydro-[1,4]dioxino[2,3-c]pyridin-7-ylmethyl)-amine Dihydrochloride] | ≤ 2
2 | COc1ccc2ncc(Cl)c(CCN3CCC(NCc4cc5c(cn4)OCCO5)CC3)c2c1.Cl.Cl [Example 4, {1-[2-(3-Chloro-6-methoxy-quinolin-4-yl)-ethyl]-piperidin-4-yl}-(2,3-dihydro-[1,4]dioxino[2,3-c]pyridin-7-ylmethyl)-amine Dihydrochloride] | ≤ 2
3 | COc1ccc2ncc(Cl)c(CCN3CCC(NCc4ccc5c(n4)NC(=O)CS5)CC3)c2c1.Cl.Cl.Cl [Example 13, 6-({1-[2-(3-Chloro-6-methoxyquinolin-4-yl)ethyl]piperidin-4-ylamino}methyl)-4H-pyrido[3,2-b][1,4]thiazin-3-one Trihydrochloride] | ≤ 2
4 | COc1ccc2ncc(Cl)c(CCN3CCC(CO)(NCc4ccc5c(n4)NC(=O)CS5)CC3)c2c1.Cl.Cl [Example 21, 6-({1-[2-(3-Chloro-6-methoxyquinolin-4-yl)ethyl]4-hydroxymethylpiperidin-4-ylamino}methyl)-4H-pyrido[3,2-b][1,4]thiazin-3-one Dihydrochloride] | ≤ 2
5 | COc1c(F)ccc2ncc(Cl)c(CCN3CCC(NCc4ccc5c(n4)NC(=O)CS5)CC3)c12.Cl.Cl [Example 22, 6-({1-[2-(3-Chloro-6-fluoro-5-methoxy-quinolin-4-yl)-ethyl]-piperidin-4-ylamino}-methyl)-4H-pyrido[3,2-b][1,4]thiazin-3-one Dihydrochloride] | ≤ 2
6 | Cc1ccc2ncc(Cl)c(CCN3CCC(NCc4ccc5c(n4)NC(=O)CS5)CC3)c2n1.Cl.Cl [Example 23, 6-({1-[2-(3-Chloro-6-methyl-[1,5]naphthyridin-4-yl)-ethyl]-piperidin-4-ylamino}-methyl)-4H-pyrido[3,2-b][1,4]thiazin-3-one Dihydrochloride] | ≤ 2
7 | Cl.Cl.O=C1CSc2ccc(CNC3CCN(CCc4c(Cl)cnc5ccc(F)cc45)CC3)nc2N1 [Example 25, 6-({1-[2-(3-Chloro-6-fluoro-quinolin-4-yl)-ethyl]-piperidin-4-ylamino}-methyl)-4H-pyrido[3,2-b][1,4]thiazin-3-one Dihydrochloride] | ≤ 2
8 | Cl.Cl.Fc1ccc2ncc(Cl)c(CCN3CCC(NCc4cc5c(cn4)OCCO5)CC3)c2c1 [Example 26, {1-[2-(3-Chloro-6-fluoro-quinolin-4-yl)-ethyl]-piperidin-4-yl}(2,3-dihydro[1,4]dioxino[2,3-c]pyridin-7-ylmethyl)-amine Dihydrochloride] | ≤ 2
9 | Cl.Cl.O=C1CSc2ccc(CNC3CCN(CCc4c(Cl)cnc5ccc(Cl)cc45)CC3)nc2N1 [Example 27, 6-({1-[2-(3,6-Dichloro-quinolin-4-yl)-ethyl]-piperidin-4-ylamino}-methyl)-4H-pyrido[3,2-b][1,4]thiazin-3-one Dihydrochloride] | ≤ 2
10 | COc1ccc2ncc(F)c(CCN3CCC(NCc4ccc5c(n4)NC(=O)CS5)CC3)c2c1.Cl.Cl [Example 31, 6-({1-[2-(3-Fluoro-6-methoxyquinolin-4-yl)ethyl]piperidin-4-ylamino}methyl)-4H-pyrido[3,2-b][1,4]thiazin-3-one dihydrochloride] | ≤ 2
11 | COc1ccc2ncc(F)c(CCN3CCC(NCc4cc5c(cn4)OCCO5)CC3)c2c1.Cl.Cl [Example 32, {1-[2-(3-Fluoro-6-methoxy-quinolin-4-yl)-ethyl]-piperidin-4-yl}-(2,3-dihydro-[1,4]dioxino[2,3-c]pyridin-7-ylmethyl)-amine dihydrochloride] | ≤ 2
12 | COc1ccc2ncc(Br)c(CCN3CCC(NCc4cc5c(cn4)OCCO5)CC3)c2c1.Cl.Cl [Example 44, {1-[2-(3-Bromo-6-methoxy-quinolin-4-yl)-ethyl]-piperidin-4-yl}-(2,3-dihydro-[1,4]dioxino[2,3-c]pyridin-7-ylmethyl)-amine Dihydrochloride] | ≤ 2
13 | COc1cc(F)c2ncc(F)c(CCN3CCC(NCc4cc5c(cn4)OCCO5)CC3)c2c1.Cl.Cl [Example 47, 1-{2-[3,8-difluoro-6-(methoxy)-4-quinolinyl]ethyl}-N-(2,3-dihydro[1,4]dioxino[2,3-c]pyridin-7-ylmethyl)-4-piperidinamine dihydrochloride] | ≤ 2
14 | COc1cc(F)c2ncc(F)c(CCN3CCC(NCc4cnc5c(c4)NC(=O)CS5)CC3)c2c1.Cl.Cl [Example 48, 7-{[(1-{2-[3,8-Difluoro-6-(methoxy)-4-quinolinyl]ethyl}-4-piperidinyl)amino]methyl}-1H-pyrido[2,3-b][1,4]thiazin-2(3H)-one dihydrochloride] | ≤ 2
15 | COc1cc(F)c2ncc(F)c(CCN3CCC(NCc4cc5c(cn4)OCO5)CC3)c2c1.Cl.Cl [Example 51, 1-{2-[3,8-difluoro-6-(methoxy)-4-quinolinyl]ethyl}-N-([1,3]dioxolo[4,5-c]pyridin-6-ylmethyl)-4-piperidinamine dihydrochloride] | ≤ 2
16 | Cl.Cl.Clc1cnc2ccc3c(c2c1CCN1CCC(NCc2cc4c(cn2)OCCO4)CC1)OCCO3 [Example 52, {1-[2-(9-Chloro-2,3-dihydro-[1,4]dioxino[2,3-f]quinolin-10-yl)-ethyl]-piperidin-4-yl}-(2,3-dihydro-[1,4]dioxino[2,3-c]pyridin-7-ylmethyl)-amine dihydrochloride] | ≤ 2
17 | COc1ccc2ncc(F)c(CCN3CCC(NCc4cc5c(cn4)SCCN5)CC3)c2n1.Cl.Cl [Example 54, N-(2,3-Dihydro-1H-pyrido[3,4-b][1,4]thiazin-7-ylmethyl)-1-{2-[3-fluoro-6-(methoxy)-1,5-naphthyridin-4-yl]ethyl}-4-piperidinamine dihydrochloride] | ≤ 2
18 | COc1ccc2ncc(F)c(CCN3CCC(NCc4ccc5c(n4)NC(=O)CO5)CC3)c2n1.Cl.Cl [Example 55, 6-{[(1-{2-[3-fluoro-6-(methoxy)-1,5-naphthyridin-4-yl]ethyl}-4-piperidinyl)amino]methyl}-2H-pyrido[3,2-b][1,4]oxazin-3(4H)-one dihydrochloride] | ≤ 2
19 | COc1ccc2ncc(F)c(CCN3CCC(NCc4cnc5c(c4)NC(=O)CS5)CC3)c2n1.Cl.Cl [Example 56, 7-{[(1-(2-[3-fluoro-6-(methoxy)-1,5-naphthyridin-4-yl]ethyl}-4-piperidinyl)amino]methyl}-1H-pyrido[2,3-b][1,4]thiazin-2(3H)-one dihydrochloride] | ≤ 2
20 | COc1ccc2ncc(F)c(CCN3CCC(NCc4cc5c(nn4)SCC(=O)N5)CC3)c2n1.Cl.Cl [Example 58, 3-{[(1-{2-[3-fluoro-6-(methoxy)-1,5-naphthyridin-4-yl]ethyl}-4-piperidinyl)amino]methyl}-5H-pyridazino[3,4-b][1,4]thiazin-6(7H)-one dihydrochloride] | ≤ 2
21 | COc1ccc2ncc(F)c(CCN3CCC(NCc4ccc5c(n4)NC(=O)CS5)CC3)c2n1.Cl.Cl [Example 59, 6-{[(1-{2-[3-Fluoro-6-(methoxy)-1,5-naphthyridin-4-yl]ethyl}-4-piperidinyl)amino]methyl}-2H-pyrido[3,2-b][1,4]thiazin-3(4H)-one dihydrochloride] | ≤ 2
